In US20210346329A1, “TCA CYCLE INTERMEDIATES AND METHODS OF USE THEREOF” (IMBRIA PHARMACEUTICALS, INC., priority 2018, published 2021):
“And” between values parts separate entries of the source, which are not always exact repeats. Equal values may be shown once. Read-outs that look alike come from different tables or passages of the source.

Columns and labels:
[1] = for Bioavailability: Oral 50 mg/kg vs IV 10 mg/kg
Experimental: Blood samples were collected up to 8 hours post-dose, and plasma concentrations of the test articles were determined by LC-MS/MS. Pharmacokinetic parameters were determined using Phoenix WinNonlin (v8.0) software.
Plasma samples were extracted and analyzed using the methods described in the section on Sample Extraction. All data are expressed as ng/mL of the free base. Samples that were below the limit of quantification were not used in the calculation of averages.
Pharmacokinetic parameters were determined with Phoenix WinNonlin (v8.0) software using a non-compartmental model. The maximum plasma concentrations (C0) after IV dosing were estimated by extrapolation of the first two time points back to t=0. The maximum plasma concentration (Cmax) and the time to reach maximum plasma concentration (Tmax) after PO dosing were observed from the data. The area under the time concentration curve (AUC) was calculated using the linear trapezoidal rule with calculation to the last quantifiable data point, and with extrapolation to infinity if applicable. […] Mean residence time, MRT, was calculated by dividing the area under the moment curve (AUMC) by the AUC. Clearance (CL) was calculated from dose/AUC. Steady-state volume of distribution (Vss) was calculated from CL*MRT (mean residence time). Bioavailability was determined by dividing the individual dose-normalized PO AUClast values by the average dose-normalized IV AUClast value. Any samples below the limit of quantitation (1 ng/mL) were treated as zero for pharmacokinetic data analysis.
Standards were prepared in Sprague-Dawley rat plasma containing sodium heparin as the anticoagulant. Working solutions were prepared in 50:50 acetonitrile:water and then added to the rat plasma to make calibration standards to final concentrations of 2000, 1000, 500, 100, 50.0, 10.0, 5.00, 2.50, and 1.00 ng/mL. Standards were treated identically to the study samples.
Plasma samples were manually extracted using acetonitrile in a 96-well plate as outlined in Table 15.

[2] = Percentage recovery of radioactive dose (expired CO2, urine, feces, cage rinse and wipe); details: IV 10 mg/kg, Subject 1006
Experimental: The plasma-time course, routes and rates of excretion, and tissue distribution of radioactivity following a single oral dose of ^14C-labeled citrate or single oral dose of ^14C-labeled succinate were analyzed in rats.
Formulations were prepared on the day prior to dosing.
CD® rats were obtained from Charles River Laboratories. Animals were 9-11 weeks in age at beginning of study.
Animals given intravenous ^14C-succinate were not kept in a fasting state. ^14C-succinate was administered by tail vein injection.
Following oral dosing, the tube and dose site were wiped with gauze, which was collected for subsequent radioanalysis. Following IV dosing, the needle and dose site were wiped with gauze, which was collected for subsequent radioanalysis. The dose site wipe total radioactivity was subtracted from the total dose administered, to determine dose loss, according to SOP ADME.
Urine and feces were collected at 0-24 hours post-dose and stored on wet ice. Expired CO2 was collected at 0-8 hours and 8-24 hours post-dose by drawing air through traps containing 2 N NaOH according to MPI Research SOP. Samples were stored at ambient temperature and weighed. Aliquots were submitted for radioanalysis.
At 24 hours post-dose, cages were rinsed with a 1% trisodium phosphate (TSP) solution and wiped with gauze pads. The final cage rinse samples and cage wipe samples were collected into separate appropriate containers, and the weight of each cage rinse and cage wipe were recorded.
Samples were analyzed for radioactivity by liquid scintillation counting (LSC) for at least 5 minutes or 100,000 cumulative counts. Samples were analyzed in triplicate.

[3] = IV 10 mg/kg, extrapolated to t = 0, mean
[4] = IV 10 mg/kg, individual Rat 598, 599, 600, 10 mg/kg
[5] = Oral 50 mg/kg, individual Rat 601, 602, 603, 50 mg/kg

For `O=[13C](O)[13CH2][13CH2][13C](=O)O` [^13C4-succinate], the Plasma concentration ([1]; IV 10 mg/kg, 0.083 hr, individual Rat 598, 599, 600, 10 mg/kg) was 8050 ng/mL and 6880 ng/mL and 8410 ng/mL, the Plasma concentration ([1]; IV 10 mg/kg, 0.083 hr, mean) was 7780 ng/mL and the Plasma concentration ([1]; IV 10 mg/kg, 0.50 hr, individual Rat 598, 599, 600, 10 mg/kg) was 91.0 ng/mL and 99.8 ng/mL and 144 ng/mL. For the same compound, the Plasma concentration ([1]; IV 10 mg/kg, 0.50 hr, mean) was 112 ng/mL, the Plasma concentration ([1]; IV 10 mg/kg, 1.0 hr, individual Rat 598, 599, 600, 10 mg/kg) was 27.0 ng/mL and 9.43 ng/mL and 29.5 ng/mL and the Plasma concentration ([1]; IV 10 mg/kg, 1.0 hr, mean) was 22.0 ng/mL. The Plasma concentration ([1]; IV 10 mg/kg, 2.0 hr, individual Rat 598, 599, 600, 10 mg/kg) was 10.3 ng/mL and 9.06 ng/mL and 19.9 ng/mL, the Plasma concentration ([1]; IV 10 mg/kg, 2.0 hr, mean) was 13.1 ng/mL and the Plasma concentration ([1]; IV 10 mg/kg, 4.0 hr, individual Rat 598, 599, 600, 10 mg/kg) was 4.79 ng/mL and 6.25 ng/mL and 6.15 ng/mL. For the same compound, the Plasma concentration ([1]; IV 10 mg/kg, 4.0 hr, mean) was 5.73 ng/mL, the Plasma concentration ([1]; IV 10 mg/kg, 8.0 hr, individual Rat 598, 599, 600) was “BLOQ (BLOQ: below the limit of quantitation (1 ng/mL))” and the tmax ([1]; IV 10 mg/kg, extrapolated to t = 0, individual Rat 598, 599, 600) was 0 min. The C0 ([1]; IV 10 mg/kg, extrapolated to t = 0, individual Rat 598, 599, 600, 10 mg/kg) was 21947 ng/mL and 21392 ng/mL and 17434 ng/mL, the C0 [1, 3] was 20257 ng/mL and the tmax [1, 3] was 0 min. For the same compound, the AUClast [1, 4] was 2215 ng·h/mL and 1958 ng·h/mL and 2291 ng·h/mL, the “AUC∞” value [1, 4] was 2223 ng·h/mL and 2902 ng·h/mL and 2303 ng·h/mL and the CL [1, 4] was 4.50 L/h/kg and 5.00 L/h/kg and 4.34 L/h/kg. For the same compound, the “Dose-normalized AUClast” value [1, 4] was 221 kg·ng·h/mL/mg and 196 kg·ng·h/mL/mg and 229 kg·ng·h/mL/mg, the “Dose-normalized AUC∞” value [1, 4] was 222 kg·ng·h/mL/mg and 290 kg·ng·h/mL/mg and 230 kg·ng·h/mL/mg and the MRTlast [1, 4] was 6.12 min and 5.69 min and 8.4 min. For the same compound, the Vss [1, 4] was 0.561 L/kg and 1.65 L/kg and 0.735 L/kg, the t1/2 [1, 4] was 1.26 h and 4.81 h and 1.30 h and the AUClast ([1]; IV 10 mg/kg, mean) was 2155 ng·h/mL. The “AUC∞” value ([1]; IV 10 mg/kg, mean) was 2176 ng·h/mL, the CL ([1]; IV 10 mg/kg, mean) was 4.61 ± 0.341 L/h/kg and the “Dose-normalized AUC∞” value ([1]; IV 10 mg/kg, mean) was 218 kg·ng·h/mL/mg. For the same compound, the MRTlast ([1]; IV 10 mg/kg, mean) was 6.78 min, the Vss ([1]; IV 10 mg/kg, mean) was 0.982 ± 0.584 L/kg and the t1/2 ([1]; IV 10 mg/kg, mean) was 2.46 ± 2.04 h. The “Dose-normalized AUClast” value ([1]; IV 10 mg/kg, mean, 10 mg/kg) was 215 kg·ng·h/mL/mg, the “Dose-normalized AUClast” value ([1]; IV 10 mg/kg, mean, listed as 13C4-Succinate, 10 mg/kg) was “^2Bioavailability determined by dividing the individual oral dose-normalized AUClast values by the average IV dose normalized AUClast value 215 hr*kg*ng/mL/mg from previous study. hr · kg · ng/mL/mg” and the Bioavailability ([1]; individual Rat 601, 602, 603) was 0.726% and 0.191% and 1.64%. For the same compound, the Bioavailability ([1]; mean) was 0.854±0.735%, the Plasma concentration ([1]; Oral 50 mg/kg, 0.50 hr, individual Rat 601, 602, 603, 50 mg/kg) was 75.4 ng/mL and 27.8 ng/mL and 186 ng/mL and the Plasma concentration ([1]; Oral 50 mg/kg, 0.50 hr, mean) was 96.4 ng/mL. The Plasma concentration ([1]; Oral 50 mg/kg, 1.0 hr, individual Rat 601, 602, 603, 50 mg/kg) was 3.78 ng/mL and 3.00 ng/mL and 5.66 ng/mL, the Plasma concentration ([1]; Oral 50 mg/kg, 1.0 hr, mean) was 4.15 ng/mL and the Plasma concentration ([1]; Oral 50 mg/kg, 2.0 hr, individual Rat 601, 602, 603, 50 mg/kg) was 1.29 ng/mL and BLOQ (BLOQ: below the limit of quantitation (1 ng/mL)) and 2.25 ng/mL. The Plasma concentration ([1]; Oral 50 mg/kg, 2.0 hr, mean) was 1.77 ng/mL, the Plasma concentration ([1]; Oral 50 mg/kg, 4.0 hr, individual Rat 601, 602, 603) was “BLOQ (BLOQ: below the limit of quantitation (1 ng/mL))” and the Plasma concentration ([1]; Oral 50 mg/kg, 8.0 hr, individual Rat 601, 602, 603) was “BLOQ (BLOQ: below the limit of quantitation (1 ng/mL))”. For the same compound, the tmax ([1]; Oral 50 mg/kg, individual Rat 601, 602, 603) was 15 min, the AUClast [1, 5] was 78.3 ng·h/mL and 20.6 ng·h/mL and 177 ng·h/mL and the Cmax [1, 5] was 186 ng/mL and 37.5 ng/mL and 408 ng/mL. The “Dose-normalized AUClast” value [1, 5] was 1.57 kg·ng·h/mL/mg and 0.411 kg·ng·h/mL/mg and 3.54 kg·ng·h/mL/mg, the MRTlast [1, 5] was 22.9 min and 24.2 min and 22.7 min and the AUClast ([1]; Oral 50 mg/kg, mean) was 92.0 ng·h/mL. For the same compound, the Cmax ([1]; Oral 50 mg/kg, mean) was 211 ± 186 ng/mL, the MRTlast ([1]; Oral 50 mg/kg, mean) was 23.3 min and the tmax ([1]; Oral 50 mg/kg, mean) was 15 min. For the same compound, the “Dose-normalized AUClast” value ([1]; Oral 50 mg/kg, mean, 50 mg/kg) was 1.84 ± 1.58 kg·ng·h/mL/mg and 1.84 kg·ng·h/mL/mg, the “Time post dosing at which maximum plasma concentrations were observed” value ([1]; PO 50 mg/kg) was 15 min and the Adverse reactions ([1]; intravenous (10 mg/kg) and oral (50 mg/kg) dosing) was “No adverse reactions were observed”.

In the case of `O=C(O)CCC(=O)O` [^14C-succinate], the “Percentage recovery of radioactive dose” value ([2]; Cage rinse, 0-24 hr) is reported as 0.1 % recovery, the “Percentage recovery of radioactive dose” value ([2]; Cage wipe, 24 hr) is reported as 0.0 % recovery and the “Percentage recovery of radioactive dose” value ([2]; Expired trap 1, 0-8 hr (line r8)) is reported as 54.8 % recovery. The “Percentage recovery of radioactive dose” value ([2]; Expired trap 1, 0-8 hr (line r9)) was 4.6 % recovery, the “Percentage recovery of radioactive dose” value ([2]; Expired trap 1, 0-8 hr (line r10)) was 0.4 % recovery and the “Percentage recovery of radioactive dose” value ([2]; Expired trap 1, 0-8 hr (line r12)) was 1.3 % recovery. The “Percentage recovery of radioactive dose” value ([2]; Expired trap 1, 0-8 hr (line r13)) was 0.7 % recovery, the “Percentage recovery of radioactive dose” value ([2]; Expired trap 1, 0-8 hr (line r14)) was 0.3 % recovery and the “Percentage recovery of radioactive dose” value ([2]; Feces, 0-24 hr) was 0.2 % recovery. For the same compound, the “Percentage recovery of radioactive dose” value ([2]; Subtotal of expired traps (line r11)) was 59.8 % recovery, the “Percentage recovery of radioactive dose” value ([2]; Subtotal of expired traps (line r15)) was 2.3 % recovery and the “Percentage recovery of radioactive dose” value ([2]; Total) was 65.265 % recovery. The “Percentage recovery of radioactive dose” value ([2]; Urine, 0-24 hr) was 2.9 % recovery.
